This is an account of results in PMC6030563, “Type 2 NADH Dehydrogenase Is the Only Point of Entry for Electrons into the Streptococcus agalactiae Respiratory Chain and Is a Potential Drug Target” (mBio, 2018).

The target in test [1] is T1, S. agalactiae NDH-2 (Streptococcus agalactiae, UniProt Q8E3H1). The experiment in a line: NDH-2 enzyme activity and kinetic parameters with NADH and soluble quinone analogues. The format is biochemical. How it is done:
The rate of NADH oxidation was determined using a UV-Vis spectrophotometer (Agilent Technologies model 8453) by monitoring absorbance at 340 nm (NADH oxidation) upon addition of 100 µM NADH in the presence of 2 nM enzyme and a 100 µM concentration of a quinone soluble analogue. Assays were performed at 37°C in buffer B (50 mM sodium phosphate buffer [pH 7], 150 mM NaCl) plus 125 µg ml^−1 of soy asolectin (Sigma) and 20 µM FAD. For determination of kinetic constants, 2 to 200 µM NADH and 2 to 200 µM of DMN were added to the reaction mixture containing 2 nM enzyme. Enzyme rates are expressed as a turnover number (kcat) based on moles of NADH oxidized per second per mole of enzyme.

For a further test, the system named is S. agalactiae cells. The experiment in a line: Inhibition of cell growth overnight under respiration permissive conditions (GI50). The format is cell-based, Streptococcus agalactiae. As to conditions: for effect on cell growth: whole cells growing under respiration permissive conditions; for GI50: Streptococcus agalactiae, overnight growth, respiration permissive conditions, read-out: GI50 (concentration that causes 50% inhibition of cell growth).

Test [2] deals with T1, S. agalactiae NDH-2. As to the kind of experiment: Inhibition of isolated NDH-2 NADH:quinone oxidoreductase activity (FDA-approved drug library screen and IC50). To be noted: for inhibition at 25 µM: read-out: inhibition of enzymatic activity.
The test system of another test is S. aureus NdhC. Also noted: method as in PMID 24709059. As to conditions: cited from earlier work.
The next test has as its system M. tuberculosis. Also noted: method as in PMID 23439641. To be noted: cited from earlier work.
The subject of a further test is Porphyromonas gingivalis. Also noted: method as in PMID 28087617. As to conditions: cited from earlier work.
The test system of the next test is Streptococcus mutans. Set-up: method as in PMID 28087617. As to conditions: cited from earlier work.
For another test, the system named is S. agalactiae WT cells. As to conditions: Streptococcus agalactiae, read-out: inhibition of respiration (oxygen consumption).
For test [3], the system named is S. agalactiae Δnox2 strain. As to the kind of experiment: Overnight growth and oxygen consumption of the Δnox2 strain with zafirlukast.

The IC50 is the midpoint of a concentration-inhibition curve. A high value points to lower potency. Usually Km stands for the substrate concentration at which the rate is half of its maximum.

T1 sequence (Q8E3H1 2-402 limits assumed): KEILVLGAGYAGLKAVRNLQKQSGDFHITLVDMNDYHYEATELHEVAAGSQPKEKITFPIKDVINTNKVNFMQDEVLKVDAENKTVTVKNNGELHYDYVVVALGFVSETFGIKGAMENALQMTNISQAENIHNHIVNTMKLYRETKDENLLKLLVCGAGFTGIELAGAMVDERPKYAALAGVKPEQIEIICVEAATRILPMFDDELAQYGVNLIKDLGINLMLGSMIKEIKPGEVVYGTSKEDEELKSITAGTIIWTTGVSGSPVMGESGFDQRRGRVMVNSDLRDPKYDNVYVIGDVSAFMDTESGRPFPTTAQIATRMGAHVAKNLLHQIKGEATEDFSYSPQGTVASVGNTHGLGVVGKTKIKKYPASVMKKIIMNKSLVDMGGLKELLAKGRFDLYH

`COC1=C(OC)C(=O)C(CC=C(C)C)=C(C)C1=O` [Q1, ubiquinone-1]: at S. agalactiae NDH-2 [1] (100 µM quinone analogue, 100 µM NADH, Fig. 2C), the “enzyme activity corresponding to 100% (NADH oxidation)” value is reported as 4,190 NADH s^−1.

`O=c1c(O[C@@H]2O[C@H](CO)[C@@H](O)[C@H](O)[C@H]2O)c(-c2ccc(O)c(O)c2)oc2cc(O)cc(O)c12` [isoquercetin]: the “effect on cell growth” value with S. agalactiae cells was “no effect on cell growth”. For the same compound, at S. agalactiae NDH-2 [2], the inhibition at 25 µM was not below 80%.

Turning to `CC1=C(C)C(=O)c2ccccc2C1=O` [DMN, 2,3-dimethyl-1,4-naphthoquinone], the turnover number entry on S. agalactiae NDH-2 [1] (with DMN as electron acceptor) is reported as “about 800 NADH/s^−1”.

With `CCCCOc1ccc(OCCCN2CCOCC2)cc1` [pramoxine], the “effect on cell growth” value in the test with S. agalactiae cells is “no effect on cell growth”. For the same compound, the inhibition at 25 µM at S. agalactiae NDH-2 [2] was not below 80%.

`Cc1cc(C(C#N)c2ccc(Cl)cc2)c(Cl)cc1NC(=O)c1cc(I)cc(I)c1O` (stereo not shown) [Closantel]: the GI50 in the test on S. agalactiae cells stood at 0.25 ± 0.04 µM. Moreover, on S. agalactiae NDH-2 [2], it took 5.34 ± 0.65 µM to reach half-maximal inhibition (IC50) and the inhibition at 25 µM was not below 80%.

On to `NC(=O)C1=CN([C@@H]2O[C@H](COP(=O)(O)OP(=O)(O)OC[C@H]3O[C@@H](n4cnc5c(N)ncnc54)[C@H](O)[C@@H]3O)[C@@H](O)[C@H]2O)C=CC1` [NADH], for which the Km at S. agalactiae NDH-2 [1] (2 nM enzyme, 2 to 200 µM NADH and DMN, 37°C, pH 7, read-out: Km for the enzyme's substrates) came to 11 µM.

In the case of `CN1CCN(CCCN2c3ccccc3Sc3ccc(C(F)(F)F)cc32)CC1` [trifluoperazine], the “inhibitory effect on S. aureus NdhC” value in the test with S. aureus NdhC is listed as “strong inhibitory effect”. Besides, the “inhibition of S. agalactiae NDH-2” value against S. agalactiae NDH-2 [2] was “not inhibited”.

In the case of `CSc1nc2cc(Cl)c(Oc3cccc(Cl)c3Cl)cc2[nH]1` [Triclabendazole], the GI50 in the test with S. agalactiae cells amounted to 15.3 ± 1.92 µM. Also, on S. agalactiae NDH-2 [2], the IC50 is 0.14 ± 0.02 µM and the inhibition at 25 µM is not below 80%.

As for `Oc1c(Cl)cc(Cl)c(Cl)c1Cc1c(O)c(Cl)cc(Cl)c1Cl` [hexachlorophene], the “inhibition of enzymatic activity” value on S. agalactiae NDH-2 [2] (25 µM each compound, pure enzyme, NADH and menadione) is “at least 80%”.

Consider `CSc1ccc2c(c1)N(CCC1CCCCN1C)c1ccccc1S2` (stereo not shown) [thioridazine], for which the “inhibitory effect on S. aureus NdhC” value in the test on S. aureus NdhC is listed as “strong inhibitory effect”.

As for `CCOc1nc2cccc(C(=O)O)c2n1Cc1ccc(-c2ccccc2-c2nnn[nH]2)cc1` [candesartan], in the test on S. agalactiae cells, the “effect on cell growth” value is listed as “no effect on cell growth”. At S. agalactiae NDH-2 [2], the inhibition at 25 µM was not below 80%.

Regarding `COc1cc(C(=O)NS(=O)(=O)c2ccccc2C)ccc1Cc1cn(C)c2ccc(NC(=O)OC3CCCC3)cc12` [Zafirlukast], the GI50 with S. agalactiae cells came out at 6.07 ± 0.1 µM. In addition, the “activity against M. tuberculosis” value with M. tuberculosis is on record as “bactericidal activity”. For the same compound, the “activity against Porphyromonas gingivalis” value in the test on Porphyromonas gingivalis is “antibacterial and antibiofilm activity”. The “activity against Streptococcus mutans” value with Streptococcus mutans is “antibacterial and antibiofilm activity”. For the same compound, in the test with S. agalactiae WT cells, the inhibition at 7.5 µM stood at 90%. The “growth under respiration permissive compared to nonpermissive conditions” value in test [3] (Δnox2 strain grown overnight with 7.5 µM zafirlukast (~GI50)) is “does not exhibit enhanced growth”. Further, the “oxygen utilization compared to cells grown in the absence of zafirlukast” value in test [3] (Δnox2 strain grown overnight with 7.5 µM zafirlukast, respiration permissive) is “substantially lower”. Further, at S. agalactiae NDH-2 [2], it took 0.83 ± 0.07 µM to reach half-maximal inhibition (IC50) and the inhibition at 25 µM is not below 80%.

Turning to `CC[C@H](C)C[C@H](C)CCCCCCCCC(=O)N[C@H]1C[C@@H](O)[C@@H](NCCN)NC(=O)[C@@H]2[C@@H](O)CCN2C(=O)[C@H]([C@H](O)CCN)NC(=O)[C@H]([C@H](O)[C@@H](O)c2ccc(O)cc2)NC(=O)[C@@H]2C[C@@H](O)CN2C(=O)[C@H]([C@@H](C)O)NC1=O` [Caspofungin], the GI50 with S. agalactiae cells came to 41 ± 2.62 µM. Further, on S. agalactiae NDH-2 [2], the IC50 came out at 15.2 ± 2.33 µM and the inhibition at 25 µM was not below 80%.

In the case of `CCCCC(CC)CNC(=N)NC(=N)NCCCCCCNC(=N)NC(=N)NCC(CC)CCCC` (stereo not shown) [Alexidine], the GI50 in the test on S. agalactiae cells worked out at 2.7 ± 0.51 µM. Further, on S. agalactiae NDH-2 [2], the IC50 amounted to 16.8 ± 1.26 µM and the inhibition at 25 µM was not below 80%.
